Experimental data published in PubChem BioAssay AID1963834 (Molecular Pharmacology Branch, DTP, NCI, 2024).

Tested on: 873145-292-R-J1-PDC complex spheroid viability
Experiment: Anticancer human tumor 873145-292-R-J1-PDC patient-derived renal clear cell carcinoma cell line growth inhibition [POLQ]
Details: for IC50: curve of first compound; for viability, T/C: stronger effect = lower value
In short: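 PDC + HUVEC + MSC complex spheroids; POLQ inhibitors ± partner drugs; top conc. at/near clinical Cmax, else 10 microM (SN-38 1 microM), half-log dilutions; 37 degrees C, 5% CO2.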

[1] = second compound 0.0316 µM, first compound 0.0316 µM
[2] = second compound 0.0316 µM, first compound 0.1 µM
[3] = second compound 0.0316 µM, first compound 0.316 µM
[4] = second compound 0.0316 µM, first compound 1 µM
[5] = second compound 0.0316 µM, first compound 3.16 µM
[6] = second compound 0.0316 µM, first compound 10 µM
[7] = second compound 0.1 µM, first compound 0.0316 µM
[8] = second compound 0.1 µM, first compound 0.1 µM
[9] = second compound 0.1 µM, first compound 0.316 µM
[10] = second compound 0.1 µM, first compound 1 µM
[11] = second compound 0.1 µM, first compound 3.16 µM
[12] = second compound 0.1 µM, first compound 10 µM
[13] = second compound 0.316 µM, first compound 0.0316 µM
[14] = second compound 0.316 µM, first compound 0.1 µM
[15] = second compound 0.316 µM, first compound 0.316 µM
[16] = second compound 0.316 µM, first compound 1 µM
[17] = second compound 0.316 µM, first compound 3.16 µM
[18] = second compound 0.316 µM, first compound 10 µM
[19] = second compound 1 µM, first compound 0.0316 µM
[20] = second compound 1 µM, first compound 0.1 µM
[21] = second compound 1 µM, first compound 0.316 µM
[22] = second compound 1 µM, first compound 1 µM
[23] = second compound 1 µM, first compound 3.16 µM
[24] = second compound 1 µM, first compound 10 µM
[25] = second compound 3.16 µM, first compound 0.0316 µM
[26] = second compound 3.16 µM, first compound 0.1 µM
[27] = second compound 3.16 µM, first compound 0.316 µM
[28] = second compound 3.16 µM, first compound 1 µM
[29] = second compound 3.16 µM, first compound 3.16 µM
[30] = second compound 3.16 µM, first compound 10 µM
[31] = second compound 10 µM, first compound 0.0316 µM
[32] = second compound 10 µM, first compound 0.1 µM
[33] = second compound 10 µM, first compound 0.316 µM
[34] = second compound 10 µM, first compound 1 µM
[35] = second compound 10 µM, first compound 3.16 µM
[36] = second compound 10 µM, first compound 10 µM
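Further: spheroids exposed to compounds for 7 days before viability readout.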
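Wherever viability, T/C is given: luminescence signal used as surrogate for viable cell content; 100% = DMSO vehicle control viability.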

Question: Which results are given for `CCc1cc2c(N3CCc4c(cc(Cn5ccnc5)cc4-c4cn(C)nc4C(F)(F)F)C3=O)cc(C)nc2c(OC)n1` + COC1C(OC(N)=O)C(O)C(Oc2ccc3c(O)c(NC(=O)c4ccc(O)c(CC=C(C)C)c4)c(=O)oc3c2C)OC1(C)C?
Answer: IC50 (second compound 0.0316 µM): > 10 µM; IC50 (second compound 0.1 µM): > 10 µM; IC50 (second compound 0.316 µM): > 10 µM; IC50 (second compound 1 µM): > 10 µM; IC50 (second compound 3.16 µM): > 10 µM; IC50 (second compound 10 µM): > 10 µM; viability, T/C [1]: 96%; viability, T/C [2]: 98.1%; viability, T/C [3]: 93.6%; viability, T/C [4]: 99.2%; viability, T/C [5]: 86.6%; viability, T/C [6]: 83%; viability, T/C [7]: 92.5%; viability, T/C [8]: 105%; viability, T/C [9]: 96.4%; viability, T/C [10]: 88.5%; viability, T/C [11]: 90.4%; viability, T/C [12]: 79.8%; viability, T/C [13]: 113%; viability, T/C [14]: 97.5%; viability, T/C [15]: 94.3%; viability, T/C [16]: 90.8%; viability, T/C [17]: 89.2%; viability, T/C [18]: 83.3%; viability, T/C [19]: 99.4%; viability, T/C [20]: 106%; viability, T/C [21]: 78.8%; viability, T/C [22]: 84.7%; viability, T/C [23]: 83.6%; viability, T/C [24]: 84.2%; viability, T/C [25]: 99.6%; viability, T/C [26]: 93%; viability, T/C [27]: 99.8%; viability, T/C [28]: 82.7%; viability, T/C [29]: 77.5%; viability, T/C [30]: 74%; viability, T/C [31]: 88.1%; viability, T/C [32]: 82.8%; viability, T/C [33]: 101%; viability, T/C [34]: 77.7%; viability, T/C [35]: 92.6%; viability, T/C [36]: 96.2%

Question: What does the source list for `CCc1cc2c(N3CCc4c(cc(Cn5ccnc5)cc4-c4cn(C)nc4C(F)(F)F)C3=O)ccnc2c(OC)n1` + COC1C(OC(N)=O)C(O)C(Oc2ccc3c(O)c(NC(=O)c4ccc(O)c(CC=C(C)C)c4)c(=O)oc3c2C)OC1(C)C?
Answer: IC50 (second compound 0.0316 µM): > 10 µM; IC50 (second compound 0.1 µM): > 10 µM; IC50 (second compound 0.316 µM): > 10 µM; IC50 (second compound 1 µM): > 10 µM; IC50 (second compound 3.16 µM): > 10 µM; IC50 (second compound 10 µM): > 10 µM; viability, T/C [1]: 97.1%; viability, T/C [2]: 96.5%; viability, T/C [3]: 98.2%; viability, T/C [4]: 97.9%; viability, T/C [5]: 86.8%; viability, T/C [6]: 79.6%; viability, T/C [7]: 106%; viability, T/C [8]: 101%; viability, T/C [9]: 87.7%; viability, T/C [10]: 81.5%; viability, T/C [11]: 82%; viability, T/C [12]: 85%; viability, T/C [13]: 107%; viability, T/C [14]: 90.1%; viability, T/C [15]: 86.4%; viability, T/C [16]: 98.7%; viability, T/C [17]: 96.6%; viability, T/C [18]: 83.2%; viability, T/C [19]: 94.1%; viability, T/C [20]: 92.4%; viability, T/C [21]: 86.7%; viability, T/C [22]: 104%; viability, T/C [23]: 84.3%; viability, T/C [24]: 74.4%; viability, T/C [25]: 103%; viability, T/C [26]: 98.7%; viability, T/C [27]: 96.5%; viability, T/C [28]: 91.8%; viability, T/C [29]: 82.4%; viability, T/C [30]: 91.4%; viability, T/C [31]: 88.4%; viability, T/C [32]: 97.5%; viability, T/C [33]: 87%; viability, T/C [34]: 86.2%; viability, T/C [35]: 85.1%; viability, T/C [36]: 78.2%
